Legend:
Type in all cases: physicochemical
[1] = Solubilization trials of compound of formula (IX) with different solubilizing agents, grinding and heating (Examples 1-11)
Protocol: Examples 1-11 were prepared according to the specific processes in Table 1. […]

[2] = Preliminary compatibility of packaging materials, in the dark at 25°C (Examples 52-54); set-up: unit not given here; conditions: Compound of Formula (IX) itself
Protocol: Examples 53 and 54 were packaged in low-density polyethylene (PE) pharmaceutical eye drops bottles, brown polyester (PET) pharmaceutical eye drops bottles and ampoules, respectively. They were placed in the dark at 25°C to investigate the preliminary compatibility of the packaging materials.

[3] = Preliminary stability of eye drops with antimicrobial preservatives, in the dark at 25°C and 40°C for 5 days (Examples 52, 55, 56); conditions: Compound of Formula (IX), 0 h
Protocol: According to the prescription ratio in Table 11, the active compound of formula (IX) was weighed, and dispersed in isopropanol with stirring until the solution was clear. HP-β-CD was slowly added under stirring, until the solution was clear. Purified water in the prescribed ratio was slowly added to the isopropanol solution under stirring, and stirred for 1 hour to obtain a clear solution. The above solution was freeze-dried in a vacuum freeze dryer to obtain a loose white freeze-dried powder. Freeze-dried powder of the inclusion compound was dissolved in a re-dissolving medium, and successively filtered through 0.45 µm and 0.22 µm mixed filter membrane to obtain active compound eye drops, and filled in a sample packaging of 2 mL per bottle, to obtain eye drops.
For multi-dose packaged eye drops, the addition of antimicrobial preservatives is needed to avoid microbial contamination during use. The effects of two antimicrobial preservatives, benzalkonium chloride and chlorhexidine acetate, on prescription stability were investigated through Examples 52, 55, and 56. The preliminary stability of eye drops from Example 52, Example 55, and Example 56 was investigated by placing them in the dark at 25°C and 40°C for 5 days.

CC(C)(O)c1ccc(-c2cnc(C(C)(C)O)c(N)c2)cc1N [Compound of Formula (IX)]
Solubility in water [1]: insoluble or almost insoluble | Impurity RRT 0.44 [2]: 0.06 | Impurity RRT 1.17 [2]: 0.05 | Impurity RRT 1.29 [2]: 0.20 | Impurity RRT 1.34 [2]: 0.10 | Impurity RRT 1.55 [2]: 0.07 | Impurity RRT 1.59 [2]: 0.02 | Impurity RRT 1.66 [2]: 0.04 | Impurity RRT 1.75 [2]: 0.04 | Impurity RRT 1.81 [2]: 0.03 | Impurity RRT 1.84 [2]: 0.25 | Impurity RRT 1.89 [2]: 0.04 | Impurity RRT 1.97 [2]: 0.03 | Impurity RRT 2.10 [2]: 0.09 | Impurity RRT 2.19 [2]: 0.21 | Impurity RRT 2.23 [2]: 0.02 | Impurity RRT 2.27 [2]: 0.03 | Total impurity [2]: 1.03 | Peak at retention time 19.6 min, relative retention time 1.00 [3]: 93.14 | Peak at retention time 20.2 min, relative retention time 1.03 [3]: 0.16 | Peak at retention time 21.1 min, relative retention time 1.08 [3]: 0.39 | Peak at retention time 21.5 min, relative retention time 1.10 [3]: 0.41 | Peak at retention time 23.8 min, relative retention time 1.21 [3]: 0.11 | Peak at retention time 24.0 min, relative retention time 1.22 [3]: 2.41 | Peak at retention time 24.5 min, relative retention time 1.25 [3]: 0.50 | Peak at retention time 24.7 min, relative retention time 1.26 [3]: 0.25 | Peak at retention time 24.8 min, relative retention time 1.27 [3]: 0.12 | Peak at retention time 25.6 min, relative retention time 1.31 [3]: 0.09 | Peak at retention time 26.0 min, relative retention time 1.33 [3]: 0.15 | Peak at retention time 26.2 min, relative retention time 1.34 [3]: 2.15 | Peak at retention time 28.3 min, relative retention time 1.44 [3]: 0.13

From patent EP4623906A1, “OPHTHALMIC FORMULATION COMPRISING PYRIDINE PHENYL COMPOUND, PREPARATION METHOD THEREFOR, AND USE THEREOF” (Zhuhai United Laboratories Co., Ltd., priority 2022, dated 2024)
